Data taken from patent US11052072B2, “Pyrazolo[4,3-C] quinoline derivatives for inhibition of β-glucuronidase” (Kaohsiung Medical University, priority 2015, dated 2021).
Counter-ions that a name gives are not always drawn.

What was measured:
[1] = target: T1, human liver-glucuronidase (hβG) (Homo sapiens, UniProt P08236); test: Inhibition of purified recombinant hβG activity (pNPG substrate, OD420); type: biochemical; settings: 10 μM, purified recombinant hβG, pNPG, means ± S.D. of at least three separate experiments; for remaining activity at 10 µM: read-out: Percent activity of human liver-glucuronidase at 10 μM (%)
T1 sequence (P08236 23-651): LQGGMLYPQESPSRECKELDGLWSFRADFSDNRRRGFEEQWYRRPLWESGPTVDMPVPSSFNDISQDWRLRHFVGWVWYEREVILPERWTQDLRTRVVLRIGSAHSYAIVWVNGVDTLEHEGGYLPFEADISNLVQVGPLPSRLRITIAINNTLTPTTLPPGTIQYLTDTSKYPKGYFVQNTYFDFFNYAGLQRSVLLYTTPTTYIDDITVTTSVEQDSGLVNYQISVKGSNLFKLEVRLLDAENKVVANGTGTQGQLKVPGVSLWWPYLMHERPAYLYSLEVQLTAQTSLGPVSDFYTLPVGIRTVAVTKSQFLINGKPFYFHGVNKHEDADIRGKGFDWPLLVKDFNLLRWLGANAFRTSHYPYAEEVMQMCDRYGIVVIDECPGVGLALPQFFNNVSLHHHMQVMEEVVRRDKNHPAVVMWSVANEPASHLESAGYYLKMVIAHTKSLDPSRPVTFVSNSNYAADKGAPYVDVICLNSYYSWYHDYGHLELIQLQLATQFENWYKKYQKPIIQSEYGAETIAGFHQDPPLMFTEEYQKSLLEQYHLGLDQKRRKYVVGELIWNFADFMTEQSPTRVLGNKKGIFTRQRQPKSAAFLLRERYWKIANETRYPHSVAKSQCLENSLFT
Method: (§1) The pyrazolo[4,3-c]quinoline derivatives were examined for their inhibition against eβG or hβG activity. Purified recombinant eβG or hβG proteins were incubated with serial dilution of the inhibitors, respectively. The βG activity was determined by color development of a βG substrate, pNPG. The hydrolysis product of pNPG, PNP was measured by OD420.

[2] = target: E. coli β-glucuronidase (eβG) (Escherichia coli, UniProt P05804); test: Inhibition of purified recombinant eβG activity (pNPG substrate, OD420); type: biochemical; settings: for remaining activity at 10 µM: read-out: Percent activity of E. coli-glucuronidase at 10 μM (%)
Method: as §1

Sequence of E. coli β-glucuronidase (eβG) (P05804 whole entry): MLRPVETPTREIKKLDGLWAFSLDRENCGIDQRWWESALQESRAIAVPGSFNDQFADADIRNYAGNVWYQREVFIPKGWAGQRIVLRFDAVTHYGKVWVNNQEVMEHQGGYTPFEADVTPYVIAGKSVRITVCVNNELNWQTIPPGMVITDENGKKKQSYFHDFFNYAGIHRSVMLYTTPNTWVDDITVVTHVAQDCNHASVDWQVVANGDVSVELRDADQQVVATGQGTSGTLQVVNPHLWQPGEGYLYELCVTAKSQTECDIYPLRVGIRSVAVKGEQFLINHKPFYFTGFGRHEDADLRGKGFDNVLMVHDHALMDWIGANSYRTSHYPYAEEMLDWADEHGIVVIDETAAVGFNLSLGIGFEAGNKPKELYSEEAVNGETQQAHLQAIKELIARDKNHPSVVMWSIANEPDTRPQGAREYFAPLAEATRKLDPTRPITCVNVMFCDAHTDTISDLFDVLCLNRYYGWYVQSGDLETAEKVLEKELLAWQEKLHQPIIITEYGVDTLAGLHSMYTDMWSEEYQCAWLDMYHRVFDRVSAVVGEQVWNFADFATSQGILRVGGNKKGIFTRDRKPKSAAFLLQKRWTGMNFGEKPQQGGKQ

Row | Compound | remaining activity at 10 µM [2] [%] | remaining activity at 10 µM [1] [%] | also measured
1 | Cc1ccc(Nc2nc3ccc(Br)cc3c3[nH]nc(N)c23)cc1 [Compound 13, S-Bromo-N^4-(p-tolyl)-1H-pyrazolo[4,3-c]quinoline-3,4-diamine] |  |  | Percent activity of human liver-glucuronidase at 10 μM (%) [1]: 80.21 ± 2.14%; Percent activity of E. coli-glucuronidase at 10 μM (%) ([2]; 10 μM, purified recombinant eβG, pNPG, means ± S.D. of at least three separate experiments): 4 ± 1%
2 | CC(=O)c1ccc(Nc2nc3ccccc3c3[nH]nc(N)c23)cc1 (as salt: salt) [Compound 23, 3-Amino-4-(4-acetylphenylamino)-1H-pyrazolo[4,3-c]quinoline] |  |  | melting point: 249 to 251 °C
3 | CCOc1ccc(NC(=S)N(CCO)Cc2cc3cc(C)cc(C)c3[nH]c2=O)cc1 [βG-Inh, 1-((6,8-Dimethyl-2-oxo-1,2-dihydroquinolin-3-yl)methyl)-3-(4-ethoxyphenyl)-1-(2-hydroxyethyl) thiourea, reference compound] | 3 ± 1 |  | 
4 | Nc1n[nH]c2c1c(Nc1ccc([N+](=O)[O-])cc1)nc1ccccc12 [Compound 21, 3-Amino-4-(4-nitrophenylamino)-1H-pyrazolo[4,3-c]quinoline] | 46.5 ± 4.95 | 90.86 ± 0.32 | 
5 | CSc1ccc(Nc2nc3ccccc3c3[nH]nc(N)c23)cc1 (as salt: salt) [Compound 20, 3-Amino-4-(4-methylthiophenylamino)-1H-pyrazolo[4,3-c]quinoline] |  |  | melting point: 269 to 271 °C
6 | Nc1n[nH]c2c1c(Nc1cccc(O)c1)nc1ccccc12 (as salt: salt) [Compound 24, 3-Amino-4-(3-hydroxyphenylamino)-1H-pyrazolo[4,3-c]quinoline] |  |  | melting point: 319 to 321 °C
7 | Nc1n[nH]c2c1c(Nc1ccc([N+](=O)[O-])cc1)nc1ccccc12 (as salt: salt) [Compound 21, 3-Amino-4-(4-nitrophenylamino)-1H-pyrazolo[4,3-c]quinoline] |  |  | melting point: 303 to 305 °C
8 | Cc1ccc(Nc2nc3ccc(Cl)cc3c3[nH]nc(N)c23)cc1 [Compound 11, 8-Chloro-N^4-(p-tolyl)-1H-pyrazolo[4,3-c]quinoline-3,4-diamine] | 3 ± 1 | 80.5 ± 2.12 | 
9 | Nc1n[nH]c2c1c(Nc1cccc(O)c1)nc1ccccc12 [Compound 24, 3-Amino-4-(3-hydroxyphenylamino)-1H-pyrazolo[4,3-c]quinoline] | 13.5 ± 0.71 | 105 ± 1.41 | 
10 | Cc1ccc(Nc2nc3cc(F)ccc3c3[nH]nc(N)c23)cc1 [Compound 9, 7-Fluoro-N^4-(p-tolyl)-1H-pyrazolo[4,3-c]quinoline-3,4-diamine] | 4 ± 1 | 81.5 ± 0.71 | 
11 | Nc1n[nH]c2c1c(Nc1ccc(C(=O)O)cc1)nc1ccccc12 [Compound 22, 4-(3-Amino-1H-pyrazolo[4,3-c]quinolin-4-ylamino)benzoic acid] | 15.5 ± 1.71 | 95 ± 4.24 | 
12 | Cc1cccc(Nc2nc3ccccc3c3[nH]nc(N)c23)c1 [Compound 25, N^4-(m-Tolyl)-1H-pyrazolo[4,3-c]quinoline-3,4-diamine] | 69.9 ± 0.02 | 102 ± 2.08 | 
13 | Nc1n[nH]c2c1c(Nc1ccc(Cl)cc1)nc1ccc(Cl)cc12 [Compound 10, 8-Chloro-N^4-(4-chlorophenyl)-1H-pyrazolo[4,3-c]quinoline-3,4-diamine] | 3 ± 1 | 77 ± 1.41 | 
14 | O=C(Nc1ccccc1)Nc1n[nH]c2c1c(=O)[nH]c1ccccc12 [Compound 34, 1-(4-oxo-4,5-dihydro-1H-pyrazolo[4,3-c]quinolin-3-yl)-3-phenylurea] | 86 ± 1 | 82 ± 1.41 | 
15 | CC(=O)c1ccc(Nc2nc3ccccc3c3[nH]nc(N)c23)cc1 [Compound 23, 3-Amino-4-(4-acetylphenylamino)-1H-pyrazolo[4,3-c]quinoline] | 3 ± 1 | 104 ± 1.41 | 
16 | CSc1ccc(Nc2nc3ccccc3c3[nH]nc(N)c23)cc1 [Compound 20, 3-Amino-4-(4-methylthiophenylamino)-1H-pyrazolo[4,3-c]quinoline] | 5 ± 1.41 | 108 ± 3.54 | 
